Laboratory results: patent US20020028851A1, “Guanylhydrazones and their use to treat inflammatory conditions” (priority 1994, published 2002)

Key:
RAW 264.7 cells = experiment: Whole cell inhibition assay for NO (nitrite) output; assay type: cell-based, murine; details: for no2/no3 % suppression of induced production: γIFN+LPS, 18 hours
Protocol: RAW 264.7 cells are plated in microculture wells at 1×10^6/ml in RPMI 1640 with 10% FBS and otherwise standard culture conditions and allowed to adhere for 5 hours. They are then activated with 25 U/ml γIFN and 0.1 μg/ml LPS in the presence of test inhibitors. The urea concentration present in the supernatant media, after 18 hours of culture, is determined by a colorimetric blood urea nitrogen diacetylmonoxime assay performed on an aliquot of the culture supernatant (Sigma Chem. Co., St. Louis, Mo.) and inhibition is expressed as the percentage urea compared to that of a parallel control culture treated identically except that the concentration of added inhibitor is zero.
The production of nitrite is determined by assay of the same tissue culture supernatant by means of a calorimetric assay. Briefly, 4 parts of test solution containing 1% (w/v) sulfanilamide, 0.1% naphthylethylenediamine di-HCl (Griess Reagent), 2.5% H3PO4 and one part media are mixed, incubated for 10 minutes and the absorbance at 560 nm determined. The nitrite concentrations are interpolated from reference curves prepared using NaNO2.
Various concentrations of the test compounds are included in the media of the stimulated RAW 264.7 cells in culture. The concentration of urea and/or nitrite after 18 hours of activated culture is determined and compared to the uninhibited control value obtained from at least one parallel culture. The fractional reduction is calculated for each concentration of inhibitor and the IC50 (concentration giving 50% reduction) is interpolated. Compounds were dissolved in media with mild heat (60° C.). Those with limited solubility were dissolved in base. The concentration of stock solutions of those compounds which were not completely soluble was determined by OD280.
This section describes experiments that measure the concentration of Compound No. 14 needed to inhibit arginine uptake and NO output. The techniques employed were described in section 7.1 supra.

CHO-TNF tumor = CHO-TNF tumor growth in nude mice; assay type: in vivo; details: 0.4 mg/Kg i.p. once daily, two weeks
Protocol: This section describes in detail the methods and results of an animal model of tumor growth to determine the ability of the compounds of the invention to inhibit tumor growth, and cause regression of tumors. Cells are plated in standard tissue culture flasks in DMEM supplemented with fetal calf serum (10%). Chinese hamster ovary (CHO) cells stably transfected with a mammalian expression vector constitutively secrete human TNF (CHO-TNF). The experiments with the CHO-TNF tumor were performed as follows: on the day of injection into nude mice, cells are harvested and injected intramuscularly (10-15×10^6 cells per animal) into the hindlimb of nu/nu nude mice (20 g body weight). Animals are housed and provided food and water ad libitum. Tumor growth is monitored, and when established tumors are present (during week six) the test compounds are administered daily (0.4 mg/Kg intraperitoneal, once daily). After two weeks the animals are euthanized, the tumor weighed, and measured with a caliper. The CHO-TNF tumor also metastasizes to the skin of these animals; the number of metastases is scored.

MIP-1α = experiment: Cytokine production by LPS/γIFN-stimulated human PBMC: MIP-1α; assay type: cell-based; details: γIFN+LPS, 18 hr
From the text: Similar results concerning a variety of cytokines in addition to TNF, e.g., IL-6 and Macrophage Inflammatory Proteins-1α and -1β (MIP-1α and MIP-1β) were obtained using human peripheral blood as a source of monocytes. Human peripheral blood mononuclear cells (PBMC) were isolated using “FICOLL®”-based methods and plated in standard 6-well culture plates at a concentration of 10^6/well and allowed to adhere for from 2 hr to overnight whereupon non-adherent cells were washed out and the medium was then replaced with medium containing the compound to be tested. One hour later, the medium was supplemented so as to contain 25 U/ml γIFN and 0.1 μg/ml LPS and the cultures incubated a further 18 hr. The medium was then collected, and cell debris removed by centrifugation. This conditioned supernatant was then assayed for the presence of cytokines using the standard methodologies of L929 cell cytotoxicity bioassay and immunoassay (ELISA).

CC(=NNC(=N)N)c1cc(NC(=O)CCCCCCCCC(=O)Nc2cc(C(C)=NNC(=N)N)cc(C(C)=NNC(=N)N)c2)cc(C(C)=NNC(=N)N)c1.Cl.Cl.Cl.Cl [Compound 14, N,N′-bis(3,5-diacetyl-phenyl)decanediamide tetrakis(amidinohydrazone) tetrahydrochloride]
no2/no3 % suppression of induced production (RAW 264.7 cells; dose 2 μM): 0% | no2/no3 % suppression of induced production (RAW 264.7 cells; dose 10 μM): 69% | no2/no3 % suppression of induced production (RAW 264.7 cells; dose 50 μM): 100% | no2/no3 % suppression of induced production (RAW 264.7 cells; dose 200 μM): 100% | IC50 (RAW 264.7 cells; exposed from 8 hours after stimulation, NO output during hours 12-24, mean±std. err., n=3, read-out: I.C.50 for NO output): 20 ± 2 µM | # of METASTASES (skin) (CHO-TNF tumor): not present | reduction in tumor size (animals responding) (CHO-TNF tumor): reduction in tumor size in four out of five animals | # of METASTASES (skin) (CHO-TNF tumor; listed as No. 14): 0 | TUMOR DIMENSION (CHO-TNF tumor; n = 4): 207.99 ± 119.90 mm^2 | TUMOR WEIGHT (CHO-TNF tumor; n = 4): 1.628 ± 1.07 g | concentration that effectively inhibited production of MIP-1α (MIP-1α): 10 to 20 µM
